{"source": "ChEMBL document CHEMBL1201861", "about": "“Genomics of Drug Sensitity in Cancer screening data, Wellcome Trust Sanger Institute”", "assay_in_all_cases": "cells", "key": {"[1]": {"tested_on": "NCI-H28", "format": "functional, cell-based, Homo sapiens", "conditions": "Homo sapiens, NCI-H28", "description": "SANGER: Inhibition of human NCI-H28 cell growth in a cell viability assay."}, "[2]": {"tested_on": "CTB-1", "format": "functional, cell-based", "conditions": "Homo sapiens", "description": "SANGER: Inhibition of human CTB-1 cell growth in a cell viability assay."}, "[3]": {"tested_on": "LAN-6", "format": "functional, cell-based, Homo sapiens", "conditions": "Homo sapiens, LAN-6", "description": "SANGER: Inhibition of human LAN-6 cell growth in a cell viability assay."}, "[4]": {"tested_on": "NCI-H2122", "format": "functional, cell-based, Homo sapiens", "conditions": "Homo sapiens, NCI-H2122", "description": "SANGER: Inhibition of human NCI-H2122 cell growth in a cell viability assay."}, "[5]": {"tested_on": "SK-PN-DW", "format": "functional, cell-based", "conditions": "Homo sapiens", "description": "SANGER: Inhibition of human SK-PN-DW cell growth in a cell viability assay."}, "[6]": {"tested_on": "COR-L88", "format": "functional, cell-based", "conditions": "Homo sapiens", "description": "SANGER: Inhibition of human COR-L88 cell growth in a cell viability assay."}, "[7]": {"tested_on": "SNU-C2B", "format": "functional, cell-based, Homo sapiens", "conditions": "Homo sapiens, SNU-C2B", "description": "SANGER: Inhibition of human SNU-C2B cell growth in a cell viability assay."}, "[8]": {"tested_on": "GT3TKB", "format": "functional, cell-based, Homo sapiens", "conditions": "Homo sapiens, GT3TKB", "description": "SANGER: Inhibition of human GT3TKB cell growth in a cell viability assay."}, "[9]": {"tested_on": "NCI-H2170", "format": "functional, cell-based, Homo sapiens", "conditions": "Homo sapiens, NCI-H2170", "description": "SANGER: Inhibition of human NCI-H2170 cell growth in a cell viability assay."}, "[10]": {"tested_on": "BV-173", "format": "functional, cell-based", "conditions": "Homo sapiens", "description": "SANGER: Inhibition of human BV-173 cell growth in a cell viability assay."}, "[11]": {"tested_on": "PC-14", "format": "functional, cell-based, Homo sapiens", "conditions": "Homo sapiens, PC-14", "description": "SANGER: Inhibition of human PC-14 cell growth in a cell viability assay."}, "[12]": {"tested_on": "HT-29", "format": "functional, cell-based, Homo sapiens", "conditions": "Homo sapiens, HT-29", "description": "SANGER: Inhibition of human HT-29 cell growth in a cell viability assay."}, "[13]": {"tested_on": "C2BBe1", "format": "functional, cell-based, Homo sapiens", "conditions": "Homo sapiens, C2BBe1", "description": "SANGER: Inhibition of human C2BBe1 cell growth in a cell viability assay."}, "[14]": {"tested_on": "BPH-1", "format": "functional, cell-based, Homo sapiens", "conditions": "Homo sapiens, BPH-1", "description": "SANGER: Inhibition of human BPH-1 cell growth in a cell viability assay."}, "[15]": {"tested_on": "KYSE-180", "format": "functional, cell-based, Homo sapiens", "conditions": "Homo sapiens, KYSE-180", "description": "SANGER: Inhibition of human KYSE-180 cell growth in a cell viability assay."}, "[16]": {"tested_on": "RPMI-8866", "format": "functional, cell-based", "conditions": "Homo sapiens", "description": "SANGER: Inhibition of human RPMI-8866 cell growth in a cell viability assay."}, "[17]": {"tested_on": "MHH-ES-1", "format": "functional, cell-based, Homo sapiens", "conditions": "Homo sapiens, MHH-ES-1", "description": "SANGER: Inhibition of human MHH-ES-1 cell growth in a cell viability assay."}, "[18]": {"tested_on": "A-427", "format": "functional, cell-based, Homo sapiens", "conditions": "Homo sapiens, A-427", "description": "SANGER: Inhibition of human A427 cell growth in a cell viability assay."}, "[19]": {"tested_on": "A204", "format": "functional, cell-based, Homo sapiens", "conditions": "Homo sapiens, A204", "description": "SANGER: Inhibition of human A204 cell growth in a cell viability assay."}, "[20]": {"tested_on": "LXF-289 cell line", "format": "functional, cell-based, Homo sapiens", "conditions": "Homo sapiens, LXF-289", "description": "SANGER: Inhibition of human LXF-289 cell growth in a cell viability assay."}, "[21]": {"tested_on": "Calu-6", "format": "functional, cell-based, Homo sapiens", "conditions": "Homo sapiens, Calu-6", "description": "SANGER: Inhibition of human Calu-6 cell growth in a cell viability assay."}, "[22]": {"tested_on": "CGTH-W-1", "format": "functional, cell-based, Homo sapiens", "conditions": "Homo sapiens, CGTH-W-1", "description": "SANGER: Inhibition of human CGTH-W-1 cell growth in a cell viability assay."}, "[23]": {"tested_on": "J82", "format": "functional, cell-based", "conditions": "Homo sapiens", "description": "SANGER: Inhibition of human J82 cell growth in a cell viability assay."}, "[24]": {"tested_on": "COLO-680N", "format": "functional, cell-based, Homo sapiens", "conditions": "Homo sapiens, COLO-680N", "description": "SANGER: Inhibition of human COLO-680N cell growth in a cell viability assay."}, "[25]": {"tested_on": "COLO-678", "format": "functional, cell-based, Homo sapiens", "conditions": "Homo sapiens, COLO-678", "description": "SANGER: Inhibition of human COLO-678 cell growth in a cell viability assay."}, "[26]": {"tested_on": "DJM-1", "format": "functional, cell-based, Homo sapiens", "conditions": "Homo sapiens, DJM-1", "description": "SANGER: Inhibition of human DJM-1 cell growth in a cell viability assay."}, "[27]": {"tested_on": "TK-10", "format": "functional, cell-based, Homo sapiens", "conditions": "Homo sapiens, TK-10", "description": "SANGER: Inhibition of human TK10 cell growth in a cell viability assay."}, "[28]": {"tested_on": "SAOS-2", "format": "functional, cell-based, Homo sapiens", "conditions": "Homo sapiens, SAOS-2", "description": "SANGER: Inhibition of human Saos-2 cell growth in a cell viability assay."}, "[29]": {"tested_on": "NB13", "format": "functional, cell-based, Homo sapiens", "conditions": "Homo sapiens, NB13", "description": "SANGER: Inhibition of human NB13 cell growth in a cell viability assay."}, "[30]": {"tested_on": "COLO-792", "format": "functional, cell-based, Homo sapiens", "conditions": "Homo sapiens, COLO-792", "description": "SANGER: Inhibition of human COLO-792 cell growth in a cell viability assay."}, "[31]": {"tested_on": "SK-MEL-28", "format": "functional, cell-based", "conditions": "Homo sapiens", "description": "SANGER: Inhibition of human SK-MEL-28 cell growth in a cell viability assay."}, "[32]": {"tested_on": "YKG-1", "format": "functional, cell-based, Homo sapiens", "conditions": "Homo sapiens, YKG-1", "description": "SANGER: Inhibition of human YKG-1 cell growth in a cell viability assay."}, "[33]": {"tested_on": "CP50-MEL-B", "format": "functional, cell-based, Homo sapiens", "conditions": "Homo sapiens, CP50-MEL-B", "description": "SANGER: Inhibition of human CP50-MEL-B cell growth in a cell viability assay."}, "[34]": {"tested_on": "GAK", "format": "functional, cell-based, Homo sapiens", "conditions": "Homo sapiens, GAK", "description": "SANGER: Inhibition of human GAK cell growth in a cell viability assay."}, "[35]": {"tested_on": "VM-CUB-1", "format": "functional, cell-based", "conditions": "Homo sapiens", "description": "SANGER: Inhibition of human VM-CUB-1 cell growth in a cell viability assay."}, "[36]": {"tested_on": "HSC-2", "format": "functional, cell-based, Homo sapiens", "conditions": "Homo sapiens, HSC-2", "description": "SANGER: Inhibition of human HSC-2 cell growth in a cell viability assay."}, "[37]": {"tested_on": "D-502MG", "format": "functional, cell-based, Homo sapiens", "conditions": "Homo sapiens, D-502MG", "description": "SANGER: Inhibition of human D-502MG cell growth in a cell viability assay."}, "[38]": {"tested_on": "CAL-12T", "format": "functional, cell-based, Homo sapiens", "conditions": "Homo sapiens, CAL-12T", "description": "SANGER: Inhibition of human CAL-12T cell growth in a cell viability assay."}, "[39]": {"tested_on": "LN-405", "format": "functional, cell-based, Homo sapiens", "conditions": "Homo sapiens, LN-405", "description": "SANGER: Inhibition of human LN-405 cell growth in a cell viability assay."}, "[40]": {"tested_on": "769-P", "format": "functional, cell-based, Homo sapiens", "conditions": "Homo sapiens, 769-P", "description": "SANGER: Inhibition of human 769-P cell growth in a cell viability assay."}, "[41]": {"tested_on": "BHT-101", "format": "functional, cell-based, Homo sapiens", "conditions": "Homo sapiens, BHT-101", "description": "SANGER: Inhibition of human BHT-101 cell growth in a cell viability assay."}, "[42]": {"tested_on": "PANC-03-27", "format": "functional, cell-based, Homo sapiens", "conditions": "Homo sapiens, PANC-03-27", "description": "SANGER: Inhibition of human PANC-03-27 cell growth in a cell viability assay."}, "[43]": {"tested_on": "SHP77", "format": "functional, cell-based, Homo sapiens, SHP-77", "conditions": "Homo sapiens, SHP77", "description": "SANGER: Inhibition of human SHP-77 cell growth in a cell viability assay."}, "[44]": {"tested_on": "NCI-H1623", "format": "functional, cell-based, Homo sapiens", "conditions": "Homo sapiens, NCI-H1623", "description": "SANGER: Inhibition of human NCI-H1623 cell growth in a cell viability assay."}, "[45]": {"tested_on": "J-RT3-T3-5", "format": "functional, cell-based", "conditions": "Homo sapiens", "description": "SANGER: Inhibition of human J-RT3-T3-5 cell growth in a cell viability assay."}, "[46]": {"tested_on": "LAMA-84", "format": "functional, cell-based", "conditions": "Homo sapiens", "description": "SANGER: Inhibition of human LAMA-84 cell growth in a cell viability assay."}, "[47]": {"tested_on": "BB30-HNC", "format": "functional, cell-based, Homo sapiens", "conditions": "Homo sapiens, BB30-HNC", "description": "SANGER: Inhibition of human BB30-HNC cell growth in a cell viability assay."}, "[48]": {"tested_on": "TE-9", "format": "functional, cell-based, Homo sapiens", "conditions": "Homo sapiens, TE-9", "description": "SANGER: Inhibition of human TE-9 cell growth in a cell viability assay."}, "[49]": {"tested_on": "LU-99A", "format": "functional, cell-based, Homo sapiens", "conditions": "Homo sapiens, LU-99A", "description": "SANGER: Inhibition of human LU-99A cell growth in a cell viability assay."}, "[50]": {"tested_on": "KNS-42", "format": "functional, cell-based, Homo sapiens", "conditions": "Homo sapiens, KNS-42", "description": "SANGER: Inhibition of human KNS-42 cell growth in a cell viability assay."}, "[51]": {"tested_on": "HD-MY-Z", "format": "functional, cell-based, Homo sapiens", "conditions": "Homo sapiens, HD-MY-Z", "description": "SANGER: Inhibition of human HD-MY-Z cell growth in a cell viability assay."}}}
{"smiles": "O=C(c1cc(Cc2n[nH]c(=O)c3ccccc23)ccc1F)N1CCN(C(=O)C2CC2)CC1", "note": "[OLAPARIB]", "values": [{"measurement": "IC50", "setting": "[1]", "result": "> 5", "unit": "µM"}, {"measurement": "IC50", "setting": "[2]", "result": "> 5", "unit": "µM"}, {"measurement": "IC50", "setting": "[3]", "result": "> 5", "unit": "µM"}, {"measurement": "IC50", "setting": "[4]", "result": "> 5", "unit": "µM"}, {"measurement": "IC50", "setting": "[5]", "result": "> 5", "unit": "µM"}, {"measurement": "IC50", "setting": "[6]", "result": "> 5", "unit": "µM"}, {"measurement": "IC50", "setting": "[7]", "result": "> 5", "unit": "µM"}, {"measurement": "IC50", "setting": "[8]", "result": "> 5", "unit": "µM"}, {"measurement": "IC50", "setting": "[9]", "result": "> 5", "unit": "µM"}, {"measurement": "IC50", "setting": "[10]", "result": "> 5", "unit": "µM"}, {"measurement": "IC50", "setting": "[11]", "result": "> 5", "unit": "µM"}, {"measurement": "IC50", "setting": "[12]", "result": "> 5", "unit": "µM"}, {"measurement": "IC50", "setting": "[13]", "result": "> 5", "unit": "µM"}, {"measurement": "IC50", "setting": "[14]", "result": "> 5", "unit": "µM"}, {"measurement": "IC50", "setting": "[15]", "result": "> 5", "unit": "µM"}, {"measurement": "IC50", "setting": "[16]", "result": "> 5", "unit": "µM"}, {"measurement": "IC50", "setting": "[17]", "result": 1.62, "unit": "µM"}, {"measurement": "IC50", "setting": "[18]", "result": "> 5", "unit": "µM"}, {"measurement": "IC50", "setting": "[19]", "result": "> 5", "unit": "µM"}, {"measurement": "IC50", "setting": "[20]", "result": "> 5", "unit": "µM"}, {"measurement": "IC50", "setting": "[21]", "result": "> 5", "unit": "µM"}, {"measurement": "IC50", "setting": "[22]", "result": "> 5", "unit": "µM"}, {"measurement": "IC50", "setting": "[23]", "result": "> 5", "unit": "µM"}, {"measurement": "IC50", "setting": "[24]", "result": "> 5", "unit": "µM"}, {"measurement": "IC50", "setting": "[25]", "result": "> 5", "unit": "µM"}, {"measurement": "IC50", "setting": "[26]", "result": "> 5", "unit": "µM"}, {"measurement": "IC50", "setting": "[27]", "result": "> 5", "unit": "µM"}, {"measurement": "IC50", "setting": "[28]", "result": "> 5", "unit": "µM"}, {"measurement": "IC50", "setting": "[29]", "result": "> 5", "unit": "µM"}, {"measurement": "IC50", "setting": "[30]", "result": "> 5", "unit": "µM"}, {"measurement": "IC50", "setting": "[31]", "result": "> 5", "unit": "µM"}, {"measurement": "IC50", "setting": "[32]", "result": "> 5", "unit": "µM"}, {"measurement": "IC50", "setting": "[33]", "result": "> 5", "unit": "µM"}, {"measurement": "IC50", "setting": "[34]", "result": "> 5", "unit": "µM"}, {"measurement": "IC50", "setting": "[35]", "result": "> 5", "unit": "µM"}, {"measurement": "IC50", "setting": "[36]", "result": "> 5", "unit": "µM"}, {"measurement": "IC50", "setting": "[37]", "result": "> 5", "unit": "µM"}, {"measurement": "IC50", "setting": "[38]", "result": "> 5", "unit": "µM"}, {"measurement": "IC50", "setting": "[39]", "result": "> 5", "unit": "µM"}, {"measurement": "IC50", "setting": "[40]", "result": "> 5", "unit": "µM"}, {"measurement": "IC50", "setting": "[41]", "result": "> 5", "unit": "µM"}, {"measurement": "IC50", "setting": "[42]", "result": "> 5", "unit": "µM"}, {"measurement": "IC50", "setting": "[43]", "result": "> 5", "unit": "µM"}, {"measurement": "IC50", "setting": "[44]", "result": "> 5", "unit": "µM"}, {"measurement": "IC50", "setting": "[45]", "result": "> 5", "unit": "µM"}, {"measurement": "IC50", "setting": "[46]", "result": "> 5", "unit": "µM"}, {"measurement": "IC50", "setting": "[47]", "result": "> 5", "unit": "µM"}, {"measurement": "IC50", "setting": "[48]", "result": "> 5", "unit": "µM"}, {"measurement": "IC50", "setting": "[49]", "result": "> 5", "unit": "µM"}, {"measurement": "IC50", "setting": "[50]", "result": "> 5", "unit": "µM"}, {"measurement": "IC50", "setting": "[51]", "result": "> 5", "unit": "µM"}]}
